Measurements taken from ChEMBL document CHEMBL3045326, “Avocadofurans and their tetrahydrofuran analogues: comparison of growth inhibitory and insecticidal activity” (2000).
The source made the active and inactive calls. The rule behind the calls is not given here.

Legend:
[1] = test system: Spodoptera exigua; test: Insecticidal activity against Spodoptera exigua larvae assessed as inhibition of larval growth at 5 umol/g of diet administered through compound containing diet after 7 days; format: functional
[2] = test system: Spodoptera exigua; test: Insecticidal activity against Spodoptera exigua larvae assessed as induction of larval mortality at 5 umol/g of diet administered through compound containing diet after 7 days; format: functional, organism-based
[3] = test system: Spodoptera exigua; test: Insecticidal activity against young Spodoptera exigua larvae assessed per ug of diet; format: functional
[4] = test system: Spodoptera exigua; test: Insecticidal activity against older Spodoptera exigua larvae assessed per ug of diet; format: functional

Structure (SMILES)	growth inhibition (GI) [1]	Activity [2]	LC50 [3]	LC50 [4]
CCCCCCCCCCCCCCCCCC1CCCO1 (stereo not drawn) [2-(HEPTADECYL)TETRAHYDROFURAN]	59%			
CCCCCCCCCCCCCCCCCc1ccco1 [2-(HEPTADECYL)FURAN]	93%	Active	≥ 2000 nM	> 3000 nM
CCCCCCCCCCCCCCCC1CCCO1 (stereo not drawn) [2-PENTADECYLTETRAHYDROFURAN]	45%			
CCCCCCCCCCCCCCCCC1CCCO1 (stereo not drawn)	inactive			
CCCCCCCCCCCCCCCc1ccco1	98%	Active	≥ 2000 nM	> 3000 nM
CCCCCCCCCCCCCCC1CCCO1 (stereo not drawn)	inactive			
CCCCCCCCCCCCCCCCCCC1CCCO1 (stereo not drawn)	Active			
